Reference: PubChem BioAssay AID1963875 (Molecular Pharmacology Branch, DTP, NCI, 2024)

Test system: KRAS-mutant PDC complex spheroid viability
Assay: Anticancer human tumor 186277-243-T-J2-PDC patient-derived colon adenocarcinoma cell line growth inhibition [KRAS2]
Conditions: for IC50: curve of first compound; for viability, T/C: stronger effect = lower value
Summary of the method: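 KRAS-mutant tumor cells were grown as spheroids with HUVEC endothelial cells and human MSCs as stroma. Targeted agents were tested alone and with KRAS pathway inhibitors. Doses started at or near clinical Cmax, or 10 microM, descending half-log.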

[1] = second compound 0.1 µM, first compound 0.0316 µM
[2] = second compound 0.1 µM, first compound 0.1 µM
[3] = second compound 0.1 µM, first compound 0.316 µM
[4] = second compound 0.1 µM, first compound 1 µM
[5] = second compound 0.1 µM, first compound 3.16 µM
[6] = second compound 0.1 µM, first compound 10 µM
[7] = second compound 0.316 µM, first compound 0.0316 µM
[8] = second compound 0.316 µM, first compound 0.1 µM
[9] = second compound 0.316 µM, first compound 0.316 µM
[10] = second compound 0.316 µM, first compound 1 µM
[11] = second compound 0.316 µM, first compound 3.16 µM
[12] = second compound 0.316 µM, first compound 10 µM
[13] = second compound 1 µM, first compound 0.0316 µM
[14] = second compound 1 µM, first compound 0.1 µM
[15] = second compound 1 µM, first compound 0.316 µM
[16] = second compound 1 µM, first compound 1 µM
[17] = second compound 1 µM, first compound 3.16 µM
[18] = second compound 1 µM, first compound 10 µM
[19] = second compound 3.16 µM, first compound 0.0316 µM
[20] = second compound 3.16 µM, first compound 0.1 µM
[21] = second compound 3.16 µM, first compound 0.316 µM
[22] = second compound 3.16 µM, first compound 1 µM
[23] = second compound 3.16 µM, first compound 3.16 µM
[24] = second compound 3.16 µM, first compound 10 µM
[25] = second compound 10 µM, first compound 0.0316 µM
[26] = second compound 10 µM, first compound 0.1 µM
[27] = second compound 10 µM, first compound 0.316 µM
[28] = second compound 10 µM, first compound 1 µM
[29] = second compound 10 µM, first compound 3.16 µM
[30] = second compound 10 µM, first compound 10 µM
[31] = second compound 0.1 µM, first compound 0.000316 µM
[32] = second compound 0.1 µM, first compound 0.001 µM
[33] = second compound 0.1 µM, first compound 0.00316 µM
[34] = second compound 0.1 µM, first compound 0.01 µM
[35] = second compound 0.316 µM, first compound 0.000316 µM
[36] = second compound 0.316 µM, first compound 0.001 µM
[37] = second compound 0.316 µM, first compound 0.00316 µM
[38] = second compound 0.316 µM, first compound 0.01 µM
[39] = second compound 1 µM, first compound 0.000316 µM
[40] = second compound 1 µM, first compound 0.001 µM
[41] = second compound 1 µM, first compound 0.00316 µM
[42] = second compound 1 µM, first compound 0.01 µM
[43] = second compound 3.16 µM, first compound 0.000316 µM
[44] = second compound 3.16 µM, first compound 0.001 µM
[45] = second compound 3.16 µM, first compound 0.00316 µM
[46] = second compound 3.16 µM, first compound 0.01 µM
[47] = second compound 10 µM, first compound 0.000316 µM
[48] = second compound 10 µM, first compound 0.001 µM
[49] = second compound 10 µM, first compound 0.00316 µM
[50] = second compound 10 µM, first compound 0.01 µM
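Wherever viability, T/C is given: viability read after seven days of compound exposure; 100% = DMSO vehicle-treated spheroids so lower means less viable.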

## CC(C)NCC(C(=O)N1CCN(c2ncnc3c2C(C)CC3O)CC1)c1ccc(Cl)cc1 (stereo not given) + COc1cc2nc(C)nc(NC(C)c3cc(N)cc(C(F)(F)F)c3)c2cc1OC1CCOC1
Second compound 0.1 µM
  IC50: 414 nM
Second compound 0.316 µM
  IC50: 305 nM
Second compound 1 µM
  IC50: 359 nM
Second compound 3.16 µM
  IC50: 571 nM
Second compound 10 µM
  IC50: 36.4 nM
[1]
  viability, T/C: 103%
[2]
  viability, T/C: 83.4%
[3]
  viability, T/C: 54.8%
[4]
  viability, T/C: 34.8%
[5]
  viability, T/C: 3.87%
[6]
  viability, T/C: 7.18%
[7]
  viability, T/C: 100%
[8]
  viability, T/C: 85.4%
[9]
  viability, T/C: 47.2%
[10]
  viability, T/C: 21.6%
[11]
  viability, T/C: 1.85%
[12]
  viability, T/C: 7.05%
[13]
  viability, T/C: 98.2%
[14]
  viability, T/C: 87.8%
[15]
  viability, T/C: 50.2%
[16]
  viability, T/C: 24.6%
[17]
  viability, T/C: 1.87%
[18]
  viability, T/C: 0.23%
[19]
  viability, T/C: 107%
[20]
  viability, T/C: 90.4%
[21]
  viability, T/C: 96.5%
[22]
  viability, T/C: 5.81%
[23]
  viability, T/C: 0.99%
[24]
  viability, T/C: 8.22%
[25]
  viability, T/C: 52.4%
[26]
  viability, T/C: 34.7%
[27]
  viability, T/C: 18.7%
[28]
  viability, T/C: 0.82%
[29]
  viability, T/C: 0.18%
[30]
  viability, T/C: 0.39%

## CC(C)n1nc(-c2ccc3oc(N)nc3c2)c2c(N)ncnc21 + COc1cc2nc(C)nc(NC(C)c3cc(N)cc(C(F)(F)F)c3)c2cc1OC1CCOC1
Second compound 0.1 µM
  IC50: 7.67 nM
Second compound 0.316 µM
  IC50: 6.38 nM
Second compound 1 µM
  IC50: 15.4 nM
Second compound 3.16 µM
  IC50: 17.3 nM
Second compound 10 µM
  IC50: 5.8 nM
[31]
  viability, T/C: 98.3%
[32]
  viability, T/C: 96.3%
[33]
  viability, T/C: 64.8%
[34]
  viability, T/C: 47%
[1]
  viability, T/C: 25.3%
[2]
  viability, T/C: 17.3%
[35]
  viability, T/C: 111%
[36]
  viability, T/C: 93.6%
[37]
  viability, T/C: 74.1%
[38]
  viability, T/C: 34.8%
[7]
  viability, T/C: 19.8%
[8]
  viability, T/C: 17.2%
[39]
  viability, T/C: 108%
[40]
  viability, T/C: 103%
[41]
  viability, T/C: 91.8%
[42]
  viability, T/C: 62.9%
[13]
  viability, T/C: 28.5%
[14]
  viability, T/C: 13.7%
[43]
  viability, T/C: 109%
[44]
  viability, T/C: 103%
[45]
  viability, T/C: 99.8%
[46]
  viability, T/C: 69%
[19]
  viability, T/C: 29%
[20]
  viability, T/C: 16%
[47]
  viability, T/C: 64.5%
[48]
  viability, T/C: 64.3%
[49]
  viability, T/C: 58.8%
[50]
  viability, T/C: 41.9%
[25]
  viability, T/C: 21.1%
[26]
  viability, T/C: 8.37%

## CC1(C)CCC(CN2CCN(c3ccc(C(=O)NS(=O)(=O)c4ccc(NCC5CCOCC5)c([N+](=O)[O-])c4)c(Oc4cnc5[nH]ccc5c4)c3)CC2)=C(c2ccc(Cl)cc2)C1 + COc1cc2nc(C)nc(NC(C)c3cc(N)cc(C(F)(F)F)c3)c2cc1OC1CCOC1
Second compound 0.1 µM
  IC50: 2190 nM
Second compound 0.316 µM
  IC50: 2070 nM
Second compound 1 µM
  IC50: 1980 nM
Second compound 3.16 µM
  IC50: 2070 nM
Second compound 10 µM
  IC50: 472 nM
[1]
  viability, T/C: 102%
[2]
  viability, T/C: 99.2%
[3]
  viability, T/C: 108%
[4]
  viability, T/C: 99.7%
[5]
  viability, T/C: 26.4%
[6]
  viability, T/C: 0.68%
[7]
  viability, T/C: 92.5%
[8]
  viability, T/C: 107%
[9]
  viability, T/C: 104%
[10]
  viability, T/C: 103%
[11]
  viability, T/C: 19.9%
[12]
  viability, T/C: 0.6%
[13]
  viability, T/C: 104%
[14]
  viability, T/C: 108%
[15]
  viability, T/C: 110%
[16]
  viability, T/C: 100%
[17]
  viability, T/C: 15.7%
[18]
  viability, T/C: 1.19%
[19]
  viability, T/C: 106%
[20]
  viability, T/C: 103%
[21]
  viability, T/C: 111%
[22]
  viability, T/C: 115%
[23]
  viability, T/C: 15.6%
[24]
  viability, T/C: 1.05%
[25]
  viability, T/C: 77.3%
[26]
  viability, T/C: 91.8%
[27]
  viability, T/C: 53.2%
[28]
  viability, T/C: 33.6%
[29]
  viability, T/C: 5.28%
[30]
  viability, T/C: 0.64%

## Cn1ncnc1[C@H]1c2n[nH]c(=O)c3cc(F)cc(c23)N[C@@H]1c1ccc(F)cc1 + COc1cc2nc(C)nc(NC(C)c3cc(N)cc(C(F)(F)F)c3)c2cc1OC1CCOC1
Second compound 0.1 µM
  IC50: > 100 nM
Second compound 0.316 µM
  IC50: > 100 nM
Second compound 1 µM
  IC50: > 100 nM
Second compound 3.16 µM
  IC50: > 100 nM
Second compound 10 µM
  IC50: 9.92 nM
[31]
  viability, T/C: 98.7%
[32]
  viability, T/C: 107%
[33]
  viability, T/C: 106%
[34]
  viability, T/C: 109%
[1]
  viability, T/C: 103%
[2]
  viability, T/C: 79.1%
[35]
  viability, T/C: 108%
[36]
  viability, T/C: 120%
[37]
  viability, T/C: 105%
[38]
  viability, T/C: 89.4%
[7]
  viability, T/C: 90.5%
[8]
  viability, T/C: 74.5%
[39]
  viability, T/C: 109%
[40]
  viability, T/C: 112%
[41]
  viability, T/C: 104%
[42]
  viability, T/C: 99.2%
[13]
  viability, T/C: 83.4%
[14]
  viability, T/C: 64.5%
[43]
  viability, T/C: 81.8%
[44]
  viability, T/C: 116%
[45]
  viability, T/C: 108%
[46]
  viability, T/C: 86.3%
[19]
  viability, T/C: 74.7%
[20]
  viability, T/C: 63.9%
[47]
  viability, T/C: 79.2%
[48]
  viability, T/C: 68.5%
[49]
  viability, T/C: 63.6%
[50]
  viability, T/C: 45.5%
[25]
  viability, T/C: 42.2%
[26]
  viability, T/C: 25%
